From BindingDB's records for doi:10.1021/jm051064t (P. Angeletti S.P.A. (Merck Research Laboratories), 2006)

Test: Inhibition of replication of HCV 1b BK RNA in Huh7 cells

Compound: O=C(NCc1ccccc1Cl)Nc1ccsc1-c1nc(C(=O)O)c(O)c(=O)[nH]1 [2-(3-(3-(2-chlorobenzyl)ureido)thiophen-2-yl)-5,6-dihydroxypyrimidine-4-carboxylic acid]
- EC50: 3.1 µM
